Results as given in BindingDB's records for doi:10.1021/jm00039a019 (Zeria Pharmaceutical, 1994).
pIC50: −log10 of the molar value.

Molecular target: Prolyl endopeptidase (Canis familiaris)
Assay: In vitro inhibitory activity against purified prolyl endopeptidase (PEP) from canine brain.

Row | SMILES | pIC50
1 | O=C[C@@H]1CSCN1C(=O)[C@@H]1CSCN1C(=O)C[C@H]1CCc2ccccc2C1 [(R)-3-[(R)-3-((S)-2-1,2,3,4-Tetrahydro-naphthalen-2-yl-acetyl)-thiazolidine-4-carbonyl]-thiazolidine-4-carbaldehyde] | 9.07
2 | CC(C)c1ccc(C(=O)c2cccs2)c(SCCCCCCCCN(C)C)n1 [[2-(8-Dimethylamino-octylsulfanyl)-6-isopropyl-pyridin-3-yl]-thiophen-2-yl-methanone] | 5.46
